We go through 20 compounds from patent US20090062255A1, “TUMOR-TARGETING EVALUATION METHODOLOGY AND COMPOUNDS RELATED THERETO” (THALLION PHARMACEUTICALS INC., priority 2007, published 2009).

Data set [1] deals with SRBC. In words: Hemolysis of SRBC. Format: cell-based. As to conditions: concentration necessary to achieve 50% hemolysis of SRBC.
Data set [2] concerns PC-3 (prostate adenocarcinoma). In words: In vitro cytotoxic activity (GI50, propidium iodide), PC-3. The format is cell-based, human. As to conditions: method (2). How it is done: (§1) Procedures used for each series of tests are described below.
(§2) Compounds were dissolved at 10 mM in DMSO. […] The following day, propidium iodide was added to one of the two plates and fluorescence measured (Tz). […] Each compound was tested at each concentration and in triplicates. The equivalent cell number was determined after adding propidium iodide by measuring the signal by fluorescence (C for control).

The subject of data set [3] is HT-29 (colorectal carcinoma). In words: In vitro cytotoxic activity (GI50, propidium iodide), HT-29. Format: cell-based. As to conditions: method (2), 96 hrs. How it is done:
as §1, §2

Data set [4] concerns SF268 (CNS). In words: In vitro cytotoxic activity (GI50, propidium iodide), SF-268. Format: cell-based. As to conditions: method (2), 96 hrs. How it is done:
as §1, §2

In data set [5] the test system is MDA-MB-231 (mammary gland adenocarcinoma). As to the kind of experiment: In vitro cytotoxic activity (GI50, propidium iodide), MDA-MB-231. The format is cell-based, human. As to conditions: method (2), 96 hrs. How it is done:
as §1, §2

The target of data set [6] is T1, peripheral benzodiazepine receptor (PBR) (Rattus norvegicus, UniProt P16257).
T1 construct: CBR and PBR were obtained from rat brain and heart membrane-fractions, respectively; from tissue; host or cells: Wistar rat heart membranes
In words: In-house PBR binding assay ([3H]PK11195, rat heart mitochondrial membranes). As to conditions: in-house radioligand-binding assay.

Data set [7] has as its system prenylation of Ras, RAP1A and HDJ2 (FTase, GGTase I). As to the kind of experiment: Protein prenylation immunoblot (FTase and GGTase I activities) in MCF-7 cells. The format is cell-based, human. The conditions noted are these: MCF7 cells, 3, 10 and 30 μM, 24 h. How it is done: It was first verified if ECO-4601 interferes with Ras processing by monitoring FTase and GGTase I activities by immunoblot analysis. For these experiments, exponentially growing MCF-7 (human breast tumor) cells were seeded in 60 mm cell culture dishes at a density of 2.5×10^6 cells per dish. After an 18 h incubation period, ECO-4601 or lovastatin (Sigma-Aldrich, St. Louis, Mo.) were added at a final concentration of 3, 10 and 30 μM for 24 h. Cells were also treated with the vehicle alone (0.05% DMSO) for the same incubation periods. Treated and control cells were lysed in ice-cold RIPA buffer (50 mM Tris-HCl pH 7.4, 1% Triton X-100, 1% deoxycholate, 0.1% SDS, 150 mM NaCl, and 1 mM EDTA) containing protease inhibitors (Roche, Mannheim, Germany) and phosphatase inhibitors (EMD Biosciences, Calbiochem, San Diego, Calif.) for 20 minutes on ice. After lysis, cell debris was removed by centrifugation at 12000×g for 10 min. […] Bound antibodies were detected using horseradish peroxidase-conjugated secondary antibodies (Jackson ImmunoResearch Laboratories Inc., West Grove, Pa.) for 1 h at room temperature in 0.5% skim milk-TBS, visualized by treating the membranes with enhanced chemiluminescence reagents (Millipore, Mississauga, ON, Canada) and exposing them to BioMax Light Films (Kodak, Mississauga, ON, Canada). […]
(A western blot detects proteins with antibodies after separation by electrophoresis.)

Structures are written as SMILES. Bounds are passed on as bounds.

Take `CCN1c2c(O)cccc2C(=O)N(C/C=C(\C)CC/C=C(\C)CCC=C(C)C)c2cc(O)cc(O)c21` [Compound 14, 10-farnesyl-4,6,8-trihydroxy-5-ethyl-5,10-dihydro-dibenzo[b,e][1,4]diazepin-11-one]: the “Hemolysis (ED50 μg/mL)” value in data set [1] was found to be 43.9 µg/mL.

Turning to `CC(C)=CCCC1(C)OC1CC/C(C)=C/CN1C(=O)c2cccc(O)c2Nc2c(O)cc(O)cc21` (stereo not shown) [Compound 17, 10-(3,7,11-trimethyl-6,7-epoxydodeca-2,10-dienyl)-4,6,8-trihydroxy-5,10-dihydro-dibenzo[b,e][1,4]diazepin-11-one], in data set [1], the “Hemolysis (ED50 μg/mL)” value amounted to 35.0 µg/mL.

What is called GI50 is the concentration that inhibits growth by half. High values mean less potent growth inhibition, low ones more potent growth inhibition. Compound `C/C(=C\CN1C(=O)c2cccc(O)c2Nc2c(O)cc(O)cc21)CC/C=C(\C)CCC1OC1(C)C` (stereo not shown) [Compound 18] displayed a GI50 in data set [2] (Homo sapiens, 96 h) above 30 µM. Besides, the “Hemolysis (ED50 μg/mL)” value in data set [1] was above 64 µg/mL.

As to `CCCN1c2c(O)cccc2C(=O)N(C/C=C(\C)CC/C=C(\C)CCC=C(C)C)c2cc(O)cc(O)c21` [Compound 63, 10-farnesyl-4,6,8-trihydroxy-5-n-propyl-5,10-dihydro-dibenzo[b,e][1,4]diazepin-11-one], in data set [1], the “Hemolysis (ED50 μg/mL)” value is above 64 µg/mL.

As to `CCCCN1c2c(O)cccc2C(=O)N(C/C=C(\C)CC/C=C(\C)CCC=C(C)C)c2cc(O)cc(O)c21` [Compound 64, 10-farnesyl-4,6,8-trihydroxy-5-n-butyl-5,10-dihydro-dibenzo[b,e][1,4]diazepin-11-one], the “Hemolysis (ED50 μg/mL)” value in data set [1] was above 64 µg/mL.

With `CCCCCCN1c2c(O)cccc2C(=O)N(C/C=C(\C)CC/C=C(\C)CCC=C(C)C)c2cc(O)cc(O)c21` [Compound 67, 10-farnesyl-4,6,8-trihydroxy-5-n-hexyl-5,10-dihydro-dibenzo[b,e][1,4]diazepin-11-one], the “Hemolysis (ED50 μg/mL)” value in data set [1] is above 64 µg/mL.

In the case of `CCC(C)N1c2c(O)cccc2C(=O)N(C/C=C(\C)CC/C=C(\C)CCC=C(C)C)c2cc(O)cc(O)c21` (stereo not shown) [Compound 77, 10-Farnesyl-4,6,8-trihydroxy-5-sec-butyl-5,10-dihydro-dibenzo[b,e][1,4]diazepin-11-one], the “Hemolysis (ED50 μg/mL)” value in data set [1] came to 60.9 µg/mL.

For `CC(C)CCCC(C)CCCC(C)CCN1C(=O)c2cccc(O)c2N(C)c2c(O)cc(O)cc21` (stereo not shown) [Compound 78, 10-(3,7,11-trimethyldodecyl)-4,6,8-trihydroxy-5-methyl-5,10-dihydro-dibenzo[b,e][1,4]diazepin-11-one], the “Hemolysis (ED50 μg/mL)” value in data set [1] was found to be 9.89 µg/mL.

Regarding `COC(C)(CCC=C(C)C)CCC/C(C)=C/CN1C(=O)c2cccc(O)c2N(C)c2c(O)cc(O)cc21` (stereo not shown) [Compound 80, 10-(7-methoxy-3,7,11-trimethyldodeca-2,10-dienyl)-4,6,8-trihydroxy-5-methyl-5,10-dihydro-dibenzo[b,e][1,4]diazepin-11-one], the “Hemolysis (ED50 μg/mL)” value in data set [1] is above 64 µg/mL.

On to `COC(C)(C)CCCC(C)=CCCC(C)=CCN1C(=O)c2cccc(O)c2Nc2c(O)cc(O)cc21` [Compound 82, 10-(11-methoxy-3,7,11-trimethyl-2,6-dodecadienyl)-4,6,8-trihydroxy-5,10-dihydro-dibenzo[b,e][1,4]diazepin-11-one], for which the “Hemolysis (ED50 μg/mL)” value in data set [1] is above 64 µg/mL.

For the compound `COC(C)(CCC=C(C)C)CCC/C(C)=C/CN1C(=O)c2cccc(O)c2Nc2c(O)cc(O)cc21` (stereo not shown) [Compound 83], the 50% growth inhibitory concentration (GI50) in data set [3] stood at 19.6 µM; in data set [4], 9.74 µM; in data set [2] (96 hrs), 13.2 µM; in data set [5], 6.71 µM. The “Hemolysis (ED50 μg/mL)” value in data set [1] worked out at 12.4 µg/mL.

As to `COC(C)(C)CCCC(C)(CCCC(C)=CCN1C(=O)c2cccc(O)c2Nc2c(O)cc(O)cc21)OC` (stereo not shown) [Compound 84, 10-(7,11-dimethoxy-3,7,11-trimethyl-2-dodecenyl)-4,6,8-trihydroxy-5,10-dihydro-dibenzo[b,e][1,4]diazepin-11-one], the “Hemolysis (ED50 μg/mL)” value in data set [1] is above 32 µg/mL.

Turning to `CCN1c2c(O)cccc2C(=O)N(CC=C(C)CCC=C(C)CCCC(C)(C)OC)c2cc(O)cc(O)c21` [Compound 85, 10-(11-methoxy-3,7,11-trimethyl-2,6-dodecadienyl)-4,6,8-trihydroxy-5-ethyl-5,10-dihydro-dibenzo[b,e][1,4]diazepin-11-one], the “Hemolysis (ED50 μg/mL)” value in data set [1] is above 64 µg/mL.

In the case of `CCN1c2c(O)cccc2C(=O)N(CC=C(C)CCCC(C)(CCCC(C)(C)OC)OC)c2cc(O)cc(O)c21` (stereo not shown) [Compound 87, 10-(7,11-dimethoxy-3,7,11-trimethyl-2-dodecenyl)-4,6,8-trihydroxy-5-ethyl-5,10-dihydro-dibenzo[b,e][1,4]diazepin-11-one], in data set [1], the “Hemolysis (ED50 μg/mL)” value was above 64 µg/mL.

Regarding `CC(C)=CCCC(C)(O)CCCC(C)=CCN1C(=O)c2cccc(O)c2Nc2c(O)cc(O)cc21` (stereo not shown) [Compound 89, 10-(7-hydroxy-3,7,11-trimethyldodeca-2,10-dienyl)-4,6,8-trihydroxy-5,10-dihydro-dibenzo[b,e][1,4]diazepin-11-one], the “Hemolysis (ED50 μg/mL)” value in data set [1] was above 64 µg/mL.

Turning to `CC(=O)NC(C)(CCC=C(C)C)CCCC(C)=CCN1C(=O)c2cccc(O)c2Nc2c(O)cc(O)cc21` (stereo not shown) [Compound 92, 10-(7-acetamido-3,7,11-trimethyldodeca-2,10-dienyl)-4,6,8-trihydroxy-5,10-dihydro-dibenzo[b,e][1,4]diazepin-11-one], the “Hemolysis (ED50 μg/mL)” value in data set [1] is above 64 µg/mL.

Take `CC(C)=CCC/C(C)=C/CC/C(C)=C/CN1C(=O)c2cccc(O)c2Nc2c1cc(O)c(Br)c2O` [Compound 97, 10-(farnesyl)-7-bromo-4,6,8-trihydroxy-5,10-dihydro-dibenzo[b,e][1,4]diazepin-11-one]: the “Hemolysis (ED50 μg/mL)” value in data set [1] was 15.1 µg/mL.

Consider `[2H]C([2H])([2H])N1c2c(O)cccc2C(=O)N(C/C=C(\C)CC/C=C(\C)CCC=C(C)C)c2cc(O)cc(O)c21` [Compound 98, 10-Farnesyl-4,6,8-trihydroxy-5-(trideuteriomethyl)-5,10-dihydro-dibenzo[b,e][1,4]diazepin-11-one], for which the “Hemolysis (ED50 μg/mL)” value in data set [1] was 4.5 µg/mL.

Usually IC50 stands for the concentration that gives 50% inhibition. A lower IC50 goes with greater potency in that assay. In data set [6], `CC(C)=CCC/C(C)=C/CC/C(C)=C/CN1C(=O)c2cccc(O)c2N(C)c2c1cc(O)c(Br)c2O` [Compound 99] yielded an IC50 of 0.01 µM.

Turning to `CC[C@H](C)C(=O)O[C@H]1C[C@@H](C)C=C2C=C[C@H](C)[C@H](CC[C@@H]3C[C@@H](O)CC(=O)O3)[C@H]21` [lovostatin, lovastatin, reference compound], the “effect on protein prenylation (mobility shift of Ras, RAP1A and HDJ2)” value in data set [7] is given as “expected mobility shift”.
